These results are taken from patent US9216986B1, “Quinoline derivatives as PDE10A enzyme inhibitors” (H. Lundbeck A/S, priority 2011, dated 2015).

Where “and” joins values, the source holds several entries; their conditions need not be identical. Identical values can stand only once.

PDE10A enzyme, sequence (Q9Y233 716-1055): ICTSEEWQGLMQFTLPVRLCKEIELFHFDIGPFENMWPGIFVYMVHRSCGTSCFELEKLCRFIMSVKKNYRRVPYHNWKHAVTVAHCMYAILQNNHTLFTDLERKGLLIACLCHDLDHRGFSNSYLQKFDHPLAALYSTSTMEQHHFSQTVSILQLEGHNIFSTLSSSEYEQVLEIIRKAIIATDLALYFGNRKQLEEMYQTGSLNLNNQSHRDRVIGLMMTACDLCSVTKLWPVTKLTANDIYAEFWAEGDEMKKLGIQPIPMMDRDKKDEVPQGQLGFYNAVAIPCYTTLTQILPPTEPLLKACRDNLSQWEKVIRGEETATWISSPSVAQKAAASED

This test concerns the target PDE10A enzyme (Homo sapiens (Human), UniProt Q9Y233). The test is described as follows: PDE10A inhibition assay. To be noted: tritium labeled cAMP 5 nM. The format is biochemical. As for the experimental part:
Active PDE10A enzyme is prepared in a number of ways for use in PDE assays (Loughney, K. et al. Gene 1999, 234, 109-117; Fujishige, K. et al. Eur J Biochem. 1999, 266, 1118-1127 and Soderling, S. et al. Proc. Natl. Acad. Sci. 1999, 96, 7071-7076). PDE10A can be expressed as full-length proteins or as truncated proteins, as long as they express the catalytic domain. PDE10A can be prepared in different cell types, for example insect cells or E. coli. An example of a method to obtain catalytically active PDE10A is as follows: The catalytic domain of human PDE10A (amino acids 440-779 from the sequence with accession number NP 006652) is amplified from total human brain total RNA by standard RT-PCR and is cloned into the BamH1 and Xho1 sites of the pET28a vector (Novagen). Expression in coli is performed according to standard protocols. Briefly, the expression plasmids are transformed into the BL21(DE3) E. coli strain, and 50 mL cultures inoculated with the cells allowed to grow to an OD600 of 0.4-0.6 before protein expression is induced with 0.5 mM IPTG. Following induction, the cells are incubated overnight at room temperature, after which the cells are collected by centrifugation. Cells expressing PDE10A are resuspended in 12 mL (50 mM TRIS-HCl-pH8.0, 1 mM MgCl2 and protease inhibitors). The cells are lysed by sonication, and after all cells are lysed, TritonX100 is added according to Novagen protocols.
A PDE10A assay may for example, be performed as follows: The assay is performed in 60 uL samples containing a fixed amount of the relevant PDE enzyme (sufficient to convert 20-25% of the cyclic nucleotide substrate), a buffer (50 mM HEPES7.6; 10 mM MgCl2; 0.02% Tween20), 0.1 mg/ml BSA, 225 pCi of ^3H-labelled cyclic nucleotide substrate, tritium labeled cAMP to a final concentration of 5 nM and varying amounts of inhibitors. Reactions are initiated by addition of the cyclic nucleotide substrate, and reactions are allowed to proceed for one hr at room temperature before being terminated through mixing with 15 uL 8 mg/mL yttrium silicate SPA beads (Amersham). The beads are allowed to settle for one hr in the dark before the plates are counted in a Wallac 1450 Microbeta counter. The measured signal can be converted to activity relative to an uninhibited control (100%) and IC50 values can be calculated using the XIfit extension to EXCEL.
The compound `COc1ccc2nc(CCc3nc4nc(C)cc(C)n4n3)ccc2c1` [2-[2-(5,7-Dimethyl-[1,2,4]triazolo[1,5-a]pyrimidin-2-yl)-ethyl]-6-methoxy-quinoline] gave an IC50 of 170 nM.

`Cc1cc(C)n2nc(CCc3ccc4ccccc4n3)nc2n1` [2-[2-(5,7-Dimethyl-[1,2,4]triazolo[1,5-a]pyrimidin-2-yl)-ethyl]-quinoline] showed an IC50 of 72 nM.

Compound `Cc1cc(C)n2cc(CCc3ccc4ccccc4n3)nc2n1` [2-[2-(5,7-Dimethyl-imidazo[1,2-a]pyrimidin-2-yl)-ethyl]-quinoline] displayed an IC50 of 310 nM.

As to `Cc1ncc(C)n2nc(CCc3cc(F)c4ccccc4n3)nc12` [2-[2-(5,8-Dimethyl-[1,2,4]triazolo[1,5-a]pyrazin-2-yl)-ethyl]-4-fluoro-quinoline], half-maximal inhibition (IC50) was put at 28 nM.

`COc1cc(CCc2nc3c(C)ncc(C)n3n2)nc2ccccc12` [2-[2-(5,8-Dimethyl-[1,2,4]triazolo[1,5-a]pyrazin-2-yl)-ethyl]-4-methoxy-quinoline] displayed an IC50 of 12 nM.

As for `Cc1cc(CCc2nc3c(C)ncc(C)n3n2)nc2ccccc12` [2-[2-(5,8-Dimethyl-[1,2,4]triazolo[1,5-a]pyrazin-2-yl)-ethyl]-4-methyl-quinoline], half-maximal inhibition (IC50) required 18 nM.

In the case of `Cc1ncc(C)n2nc(CCc3ccc4c(F)c(F)cc(F)c4n3)nc12` [2-[2-(5,8-Dimethyl-[1,2,4]triazolo[1,5-a]pyrazin-2-yl)-ethyl]-5,6,8-trifluoro-quinoline], the IC50 turned out to be 360 nM.

In the case of `Cc1ncc(C)n2nc(CCc3ccc4c(F)cc(F)cc4n3)nc12` [2-[2-(5,8-Dimethyl-[1,2,4]triazolo[1,5-a]pyrazin-2-yl)-ethyl]-5,7-difluoro-quinoline], the IC50 was 110 nM.

`Cc1ncc(C)n2nc(CCc3ccc4c(F)cccc4n3)nc12` [2-[2-(5,8-Dimethyl-[1,2,4]triazolo[1,5-a]pyrazin-2-yl)-ethyl]-5-fluoro-quinoline] returned an IC50 of 120 nM.

On to `Cc1ncc(C)n2nc(CCc3ccc4cc(F)cc(F)c4n3)nc12` [2-[2-(5,8-Dimethyl-[1,2,4]triazolo[1,5-a]pyrazin-2-yl)-ethyl]-6,8-difluoro-quinoline], for which the IC50 is 300 nM.

On to `COc1cc(CCc2nc3c(C)ncc(C)n3n2)nc2ccc(F)cc12` [2-[2-(5,8-Dimethyl-[1,2,4]triazolo[1,5-a]pyrazin-2-yl)-ethyl]-6-fluoro-4-methoxy-quinoline], for which the midpoint of inhibition, the IC50, lay at 14 nM.

The compound `Cc1cc2nc(CCc3nc4c(C)ncc(C)n4n3)ccc2cc1F` [2-[2-(5,8-Dimethyl-[1,2,4]triazolo[1,5-a]pyrazin-2-yl)-ethyl]-6-fluoro-7-methyl-quinoline] gave an IC50 of 8.8 nM.

Compound `Cc1cc(F)cc2ccc(CCc3nc4c(C)ncc(C)n4n3)nc12` [2-[2-(5,8-Dimethyl-[1,2,4]triazolo[1,5-a]pyrazin-2-yl)-ethyl]-6-fluoro-8-methyl-quinoline] returned an IC50 of 2000 nM.

`Cc1ncc(C)n2nc(CCc3cc(O)c4cc(F)ccc4n3)nc12` [2-[2-(5,8-Dimethyl-[1,2,4]triazolo[1,5-a]pyrazin-2-yl)-ethyl]-6-fluoro-quinolin-4-ol] displayed an IC50 of 410 nM.

Turning to `Cc1ncc(C)n2nc(CCc3ccc4cc(F)ccc4n3)nc12` [2-[2-(5,8-Dimethyl-[1,2,4]triazolo[1,5-a]pyrazin-2-yl)-ethyl]-6-fluoro-quinoline], the IC50 was 24 nM and 26 nM.

Compound `COc1cc(CCc2nc3c(C)ncc(C)n3n2)nc2cc(F)ccc12` [2-[2-(5,8-Dimethyl-[1,2,4]triazolo[1,5-a]pyrazin-2-yl)-ethyl]-7-fluoro-4-methoxy-quinoline] returned an IC50 of 26 nM.

In turn, `Cc1ncc(C)n2nc(CCc3cc(O)c4ccc(F)cc4n3)nc12` [2-[2-(5,8-Dimethyl-[1,2,4]triazolo[1,5-a]pyrazin-2-yl)-ethyl]-7-fluoro-quinolin-4-ol] had an IC50 of 500 nM.

As to `Cc1ncc(C)n2nc(CCc3ccc4ccc(F)cc4n3)nc12` [2-[2-(5,8-Dimethyl-[1,2,4]triazolo[1,5-a]pyrazin-2-yl)-ethyl]-7-fluoro-quinoline], the IC50 was found to be 15 nM.

In turn, `Cc1ncc(C)n2nc(CCc3ccc4ccc(C(F)(F)F)cc4n3)nc12` [2-[2-(5,8-Dimethyl-[1,2,4]triazolo[1,5-a]pyrazin-2-yl)-ethyl]-7-trifluoromethyl-quinoline] yielded an IC50 of 240 nM.

For `Cc1ncc(C)n2nc(CCc3ccc4ccccc4n3)nc12` [2-[2-(5,8-Dimethyl-[1,2,4]triazolo[1,5-a]pyrazin-2-yl)-ethyl]-quinoline], the IC50 turned out to be 19 nM.

`Cc1ccc(C)n2nc(CCc3ccc4ccccc4n3)nc12` [2-[2-(5,8-Dimethyl-[1,2,4]triazolo[1,5-a]pyridin-2-yl)-ethyl]-quinoline]: the IC50 was 24 nM.

Compound `Cc1cnc(C)n2nc(CCc3ccc4cc(C(C)C)ccc4n3)nc12` [2-[2-(5,8-Dimethyl-[1,2,4]triazolo[1,5-c]pyrimidin-2-yl)-ethyl]-6-isopropyl-quinoline] yielded an IC50 of 61 nM.

For the compound `Cc1ccc(O)c2nc(CCc3ccc4cc(F)ccc4n3)nn12` [2-[2-(6-Fluoro-quinolin-2-yl)-ethyl]-5-methyl-[1,2,4]triazolo[1,5-a]pyridin-8-ol], the midpoint of inhibition, the IC50, lay at 85 nM.

`CCc1ccc(C)n2nc(CCc3ccc4cc(F)ccc4n3)nc12` [2-[2-(8-Ethyl-5-methyl-[1,2,4]triazolo[1,5-a]pyridin-2-yl)-ethyl]-6-fluoro-quinoline] had an IC50 of 25 nM.

`COc1ccc(C)n2nc(CCc3cc(C)c4ccccc4n3)nc12` [2-[2-(8-Methoxy-5-methyl-[1,2,4]triazolo[1,5-a]pyridin-2-yl)-ethyl]-4-methyl-quinoline]: it took 42 nM to reach half-maximal inhibition (IC50).

In the case of `COc1ccc(C)n2nc(CCc3ccc4ccccc4n3)nc12` [2-[2-(8-Methoxy-5-methyl-[1,2,4]triazolo[1,5-a]pyridin-2-yl)-ethyl]-quinoline], half-maximal inhibition (IC50) required 12 nM.

The compound `Cc1cc(C)n2cc(/C=C/c3ccc4ccccc4n3)nc2n1` [2-[(E)-2-(5,7-Dimethyl-imidazo[1,2-a]pyrimidin-2-yl)-vinyl]-quinoline] had an IC50 of 320 nM.

In turn, `COc1cccc2nc(/C=C/c3nc4c(C)ncc(C)n4n3)ccc12` [2-[(E)-2-(5,8-Dimethyl-[1,2,4]triazolo[1,5-a]pyrazin-2-yl)-vinyl]-5-methoxy-quinoline] showed an IC50 of 19 nM.

In the case of `Cc1ncc(C)n2nc(/C=C/c3ccc4cc(C#N)ccc4n3)nc12` [2-[(E)-2-(5,8-Dimethyl-[1,2,4]triazolo[1,5-a]pyrazin-2-yl)-vinyl]-6-cyano-quinoline], the IC50 was found to be 2100 nM.

The compound `Cc1ncc(C)n2nc(/C=C/c3ccc4cc(F)ccc4n3)nc12` [2-[(E)-2-(5,8-Dimethyl-[1,2,4]triazolo[1,5-a]pyrazin-2-yl)-vinyl]-6-fluoro-quinoline] came in with an IC50 of 190 nM.

`Cc1ncc(C)n2nc(/C=C/c3ccc4cc(OC(F)(F)F)ccc4n3)nc12` [2-[(E)-2-(5,8-Dimethyl-[1,2,4]triazolo[1,5-a]pyrazin-2-yl)-vinyl]-6-trifluoromethoxy-quinoline] gave an IC50 of 2800 nM.

As for `Cc1ncc(C)n2nc(/C=C/c3ccc4cc(C(F)(F)F)ccc4n3)nc12` [2-[(E)-2-(5,8-Dimethyl-[1,2,4]triazolo[1,5-a]pyrazin-2-yl)-vinyl]-6-trifluoromethyl-quinoline], the IC50 stood at 490 nM.

The compound `COc1ccc2ccc(/C=C/c3nc4c(C)ncc(C)n4n3)nc2c1` [2-[(E)-2-(5,8-Dimethyl-[1,2,4]triazolo[1,5-a]pyrazin-2-yl)-vinyl]-7-methoxy-quinoline] had an IC50 of 13 nM.

As for `Cc1ncc(C)n2nc(/C=C/c3ccc4ccc(C(F)(F)F)cc4n3)nc12` [2-[(E)-2-(5,8-Dimethyl-[1,2,4]triazolo[1,5-a]pyrazin-2-yl)-vinyl]-7-trifluoromethyl-quinoline], the IC50 amounted to 550 nM.

The compound `Cc1cc(C)n2cc(/C=C\c3ccc4ccccc4n3)nc2n1` [2-[(Z)-2-(5,7-Dimethyl-imidazo[1,2-a]pyrimidin-2-yl)-vinyl]-quinoline] gave an IC50 of 240 nM.

The compound `COc1ccc(C)n2nc(/C=C/c3cc(Cl)c4cccc(F)c4n3)nc12` [4-Chloro-8-fluoro-2-[(E)-2-(8-methoxy-5-methyl-[1,2,4]triazolo[1,5-a]pyridin-2-yl)-vinyl]-quinoline] registered an IC50 of 270 nM.

Compound `COc1cc(CCc2nc3cccc(C)n3n2)nc2ccccc12` [4-Methoxy-2-[2-(5-methyl-[1,2,4]triazolo[1,5-a]pyridin-2-yl)-ethyl]-quinoline] displayed an IC50 of 190 nM.
